From ChEMBL document CHEMBL1909294, “Translating clinical findings into knowledge in drug safety evaluation--drug induced liver injury prediction system (DILIps)” (PLoS Comput Biol, 2011)

Experiments:
Hepatotoxicity [1] = tested on: Hepatotoxicity;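 as to HepSE cholecystitis: Cholecystitis-related hepatic side effect score drawn from the DILIps (drug-induced liver injury prediction) training data set; call rule not given here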;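 as to HepSE cirrhosis: cirrhosis hepatic side effect score taken from the DILIps (drug-induced liver injury prediction) training set; call rule not given here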; as to HepSE hepatic failure: call rule not given here;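 as to HepSE hepatic necrosis: score of hepatic side effects for hepatic necrosis, drawn from the training data of DILIps, a prediction system for drug-induced liver injury; call rule not given here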;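 as to HepSE jaundice: Jaundice-related hepatic side-effect score drawn from the training data of the DILIps (drug-induced liver injury prediction system); call rule not given here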; as to HepSE liver disease: call rule not given here;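 as to HepSE liver function tests abnormal: hepatic side effect score taken from the DILIps (drug-induced liver injury prediction system) training data, here covering abnormal liver function test findings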
Hepatotoxicity [2] = tested on: Hepatotoxicity; remark: listed apart in the source;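 as to HepSE cholecystitis: Cholecystitis-related hepatic side effect score drawn from the DILIps (drug-induced liver injury prediction) training data set; call rule not given here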;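 as to HepSE cirrhosis: cirrhosis hepatic side effect score taken from the DILIps (drug-induced liver injury prediction) training set; call rule not given here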; as to HepSE hepatic failure: call rule not given here;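 as to HepSE hepatic necrosis: score of hepatic side effects for hepatic necrosis, drawn from the training data of DILIps, a prediction system for drug-induced liver injury; call rule not given here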;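 as to HepSE jaundice: Jaundice-related hepatic side-effect score drawn from the training data of the DILIps (drug-induced liver injury prediction system); call rule not given here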; as to HepSE liver disease: call rule not given here;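 as to HepSE liver function tests abnormal: hepatic side effect score taken from the DILIps (drug-induced liver injury prediction system) training data, here covering abnormal liver function test findings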
Hepatotoxicity [3] = tested on: Hepatotoxicity; remark: listed apart in the source;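 as to HepSE cholecystitis: Cholecystitis-related hepatic side effect score drawn from the DILIps (drug-induced liver injury prediction) training data set; call rule not given here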;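 as to HepSE cirrhosis: cirrhosis hepatic side effect score taken from the DILIps (drug-induced liver injury prediction) training set; call rule not given here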; as to HepSE hepatic failure: call rule not given here;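 as to HepSE hepatic necrosis: score of hepatic side effects for hepatic necrosis, drawn from the training data of DILIps, a prediction system for drug-induced liver injury; call rule not given here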;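 as to HepSE jaundice: Jaundice-related hepatic side-effect score drawn from the training data of the DILIps (drug-induced liver injury prediction system); call rule not given here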; as to HepSE liver disease: call rule not given here;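 as to HepSE liver function tests abnormal: hepatic side effect score taken from the DILIps (drug-induced liver injury prediction system) training data, here covering abnormal liver function test findings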
Hepatotoxicity [4] = tested on: Hepatotoxicity; remark: listed apart in the source;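 as to HepSE cholecystitis: Cholecystitis-related hepatic side effect score drawn from the DILIps (drug-induced liver injury prediction) training data set; call rule not given here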;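 as to HepSE cirrhosis: cirrhosis hepatic side effect score taken from the DILIps (drug-induced liver injury prediction) training set; call rule not given here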; as to HepSE hepatic failure: call rule not given here;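 as to HepSE jaundice: Jaundice-related hepatic side-effect score drawn from the training data of the DILIps (drug-induced liver injury prediction system); call rule not given here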; as to HepSE liver disease: call rule not given here;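 as to HepSE liver function tests abnormal: hepatic side effect score taken from the DILIps (drug-induced liver injury prediction system) training data, here covering abnormal liver function test findings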
Hepatotoxicity [5] = tested on: Hepatotoxicity; remark: listed apart in the source; as to HepSE hepatic failure: call rule not given here; as to HepSE liver disease: call rule not given here
Hepatotoxicity [6] = tested on: Hepatotoxicity; remark: listed apart in the source; as to HepSE hepatic failure: call rule not given here; as to HepSE liver disease: call rule not given here
Hepatotoxicity [7] = tested on: Hepatotoxicity; remark: listed apart in the source
Hepatotoxicity [8] = tested on: Hepatotoxicity; remark: listed apart in the source
Hepatotoxicity [9] = tested on: Hepatotoxicity; remark: listed apart in the source
Hepatotoxicity [10] = tested on: Hepatotoxicity; remark: listed apart in the source
Hepatotoxicity [11] = tested on: Hepatotoxicity; remark: listed apart in the source
Hepatotoxicity [12] = tested on: Hepatotoxicity; remark: listed apart in the source
Hepatotoxicity [13] = tested on: Hepatotoxicity; remark: listed apart in the source
Hepatotoxicity [14] = tested on: Hepatotoxicity; remark: listed apart in the source

Structure (SMILES)	HepSE_cholecystitis (Hepatotoxicity [1])	HepSE_jaundice (Hepatotoxicity [2])	HepSE_liver disease (Hepatotoxicity [3])	HepSE_cirrhosis (Hepatotoxicity [4])	HepSE_hepatic failure (Hepatotoxicity [5])	HepSE_liver function tests abnormal (Hepatotoxicity [6])	HepSE_hepatic necrosis (Hepatotoxicity [7])	HepSE_elevated liver function tests (Hepatotoxicity [8])	HepSE_hepatitis (Hepatotoxicity [9])	HepSE_Combined Scores (Hepatotoxicity [10])	HepSE_liver fatty (Hepatotoxicity [11])	HepSE_cholelithiasis (Hepatotoxicity [12])	HepSE_bilirubinemia (Hepatotoxicity [13])	HepSE_hepatomegaly (Hepatotoxicity [14])	other results
CC(=O)N(O)CCCCCNC(=O)CCC(=O)N(O)CCCCCNC(=O)CCC(=O)N(O)CCCCCN [DEFEROXAMINE]	0	0	0	0	0	0	0	0	0	0	0	0	0	0	–
CC(C)Nc1cccnc1N1CCN(C(=O)c2cc3cc(NS(C)(=O)=O)ccc3[nH]2)CC1 [DELAVIRDINE]	0	1	0	0	1	0	0	0	1	5	0	0	1	1	–
CN(C)[C@@H]1C(O)=C(C(N)=O)C(=O)[C@@]2(O)C(O)=C3C(=O)c4c(O)ccc(Cl)c4[C@@H](O)[C@H]3C[C@@H]12 [DEMECLOCYCLINE]	0	0	0	0	1	0	0	0	1	2	0	0	0	0	–
CNCCCN1c2ccccc2CCc2ccccc21 [DESIPRAMINE]	–	–	–	–	–	–	–	–	–	–	–	–	–	–	HepSE_cholecystitis (Hepatotoxicity [1]; Liver): 0; HepSE_jaundice (Hepatotoxicity [2]; Liver): 1; HepSE_liver disease (Hepatotoxicity [3]; Liver): 0; HepSE_cirrhosis (Hepatotoxicity [4]; Liver): 0; HepSE_hepatic failure (Hepatotoxicity [5]; Liver): 0; HepSE_liver function tests abnormal (Hepatotoxicity [6]; Liver): 0; HepSE_hepatic necrosis (Hepatotoxicity [7]; Liver): 0; HepSE_elevated liver function tests (Hepatotoxicity [8]; Liver): 1; HepSE_hepatitis (Hepatotoxicity [9]; Liver): 1; HepSE_Combined Scores (Hepatotoxicity [10]; Liver): 3; HepSE_liver fatty (Hepatotoxicity [11]; Liver): 0; HepSE_cholelithiasis (Hepatotoxicity [12]; Liver): 0; HepSE_bilirubinemia (Hepatotoxicity [13]; Liver): 0; HepSE_hepatomegaly (Hepatotoxicity [14]; Liver): 0
NC(=O)CC[C@@H]1NC(=O)[C@H](Cc2ccccc2)NC(=O)[C@H](Cc2ccc(O)cc2)NC(=O)CCSSC[C@@H](C(=O)N2CCC[C@H]2C(=O)N[C@H](CCCN=C(N)N)C(=O)NCC(N)=O)NC(=O)[C@H](CC(N)=O)NC1=O [DESMOPRESSIN]	0	0	0	0	0	0	0	0	0	0	0	0	0	0	–
CC1(C)O[C@@H]2C[C@H]3[C@@H]4CCC5=CC(=O)C=C[C@]5(C)[C@H]4[C@@H](O)C[C@]3(C)[C@]2(C(=O)CO)O1 [DESONIDE]	0	0	0	0	0	0	0	0	0	0	0	0	0	0	–
C[C@@H]1C[C@H]2[C@@H]3CCC4=CC(=O)C=C[C@]4(C)[C@@]3(F)[C@@H](O)C[C@]2(C)[C@H]1C(=O)CO [DESOXIMETASONE]	0	0	0	0	0	0	0	0	0	0	0	0	0	0	–
CN(C)CC(c1ccc(O)cc1)C1(O)CCCCC1 (stereo not drawn) [DESVENLAFAXINE]	0	0	0	0	0	0	0	0	0	0	0	0	0	0	–
C[C@@H]1C[C@H]2[C@@H]3CCC4=CC(=O)C=C[C@]4(C)[C@@]3(F)[C@@H](O)C[C@]2(C)[C@@]1(O)C(=O)CO [DEXAMETHASONE]	0	0	0	0	0	0	0	0	0	1	0	0	0	1	–
Cc1cccc([C@H](C)c2cnc[nH]2)c1C [DEXMEDETOMIDINE]	–	–	–	–	–	–	–	–	–	–	–	–	–	–	HepSE_cholecystitis (Hepatotoxicity [1]; Liver): 0; HepSE_jaundice (Hepatotoxicity [2]; Liver): 0; HepSE_liver disease (Hepatotoxicity [3]; Liver): 0; HepSE_cirrhosis (Hepatotoxicity [4]; Liver): 0; HepSE_hepatic failure (Hepatotoxicity [5]; Liver): 0; HepSE_liver function tests abnormal (Hepatotoxicity [6]; Liver): 0; HepSE_hepatic necrosis (Hepatotoxicity [7]; Liver): 0; HepSE_elevated liver function tests (Hepatotoxicity [8]; Liver): 0; HepSE_hepatitis (Hepatotoxicity [9]; Liver): 0; HepSE_Combined Scores (Hepatotoxicity [10]; Liver): 1; HepSE_liver fatty (Hepatotoxicity [11]; Liver): 0; HepSE_cholelithiasis (Hepatotoxicity [12]; Liver): 0; HepSE_bilirubinemia (Hepatotoxicity [13]; Liver): 1; HepSE_hepatomegaly (Hepatotoxicity [14]; Liver): 0
C[C@@H](CN1CC(=O)NC(=O)C1)N1CC(=O)NC(=O)C1 [DEXRAZOXANE]	0	0	0	0	0	0	0	0	0	0	0	0	0	0	–
CC1=NS(=O)(=O)c2cc(Cl)ccc2N1 [DIAZOXIDE]	0	0	0	0	0	0	0	0	0	0	0	0	0	0	–
O=C(O)Cc1ccccc1Nc1c(Cl)cccc1Cl [DICLOFENAC]	–	–	–	–	–	–	–	–	–	–	–	–	–	–	HepSE_cholecystitis (Hepatotoxicity [1]; Liver): 0; HepSE_jaundice (Hepatotoxicity [2]; Liver): 1; HepSE_liver disease (Hepatotoxicity [3]; Liver): 0; HepSE_cirrhosis (Hepatotoxicity [4]; Liver): 1; HepSE_hepatic failure (Hepatotoxicity [5]; Liver): 1; HepSE_liver function tests abnormal (Hepatotoxicity [6]; Liver): 0; HepSE_hepatic necrosis (Hepatotoxicity [7]; Liver): 1; HepSE_elevated liver function tests (Hepatotoxicity [8]; Liver): 0; HepSE_hepatitis (Hepatotoxicity [9]; Liver): 1; HepSE_Combined Scores (Hepatotoxicity [10]; Liver): 5; HepSE_liver fatty (Hepatotoxicity [11]; Liver): 0; HepSE_cholelithiasis (Hepatotoxicity [12]; Liver): 0; HepSE_bilirubinemia (Hepatotoxicity [13]; Liver): 0; HepSE_hepatomegaly (Hepatotoxicity [14]; Liver): 0
Cc1onc(-c2c(Cl)cccc2Cl)c1C(=O)N[C@@H]1C(=O)N2[C@@H]1SC(C)(C)[C@@H]2C(=O)O [DICLOXACILLIN]	0	0	0	0	0	1	0	0	1	2	0	0	0	0	–
CCN(CC)CCOC(=O)C1(C2CCCCC2)CCCCC1 [DICYCLOMINE]	0	0	0	0	0	–	0	–	0	0	0	0	0	0	HepSE_liver function tests abnormal (Hepatotoxicity [6]; Liver): 0; HepSE_elevated liver function tests (Hepatotoxicity [8]; Liver): 0
O=c1[nH]cnc2c1ncn2[C@H]1CC[C@@H](CO)O1 [DIDANOSINE]	0	0	0	0	1	0	0	0	1	4	1	0	0	1	–
CCN(CC)C(C)C(=O)c1ccccc1 (stereo not drawn) [DIETHYLPROPION]	0	0	0	0	0	0	0	0	0	0	0	0	0	0	–
